Earlier results on one molecule are cited in patent US8153594B2, “Tacrolimus standard and methods of using same” (Siemens Healthcare Diagnostics Inc., priority 2006, dated 2012).

The structures appear in SMILES notation.

For the molecule `C=CC[C@@H]1/C=C(\C)C[C@H](C)C[C@H](OC)[C@H]2O[C@@](O)(C(=O)C(=O)N3CCCC[C@H]3C(=O)O[C@H](/C(C)=C/[C@@H]3CC[C@@H](O)[C@H](OC)C3)[C@H](C)[C@@H](O)CC1=O)[C@H](C)C[C@@H]2OC` [tacrolimus, Tacrolimus], the Solubility in water result is listed as “insoluble in water”.
